Laboratory results taken from patent US9796720B2, “Imidazole-derived modulators of the glucocorticoid receptor” (BRISTOL-MYERS SQUIBB COMPANY, priority 2013, dated 2017).
Like-named read-outs stand apart in the source and are kept apart here.

Assays:
[1] = target: human full-length glucocorticoid receptor (Homo sapiens (Human), UniProt P04150); experiment: Glucocorticoid Receptor Binding Assay (II), fluorescence polarization competitor assay; conditions: recombinant human full-length GR cell lysate, Fluormone GS1; read-out: GR (Ki, nM) (measured in GR binding Assay II)
Chain of human full-length glucocorticoid receptor (P04150 whole entry): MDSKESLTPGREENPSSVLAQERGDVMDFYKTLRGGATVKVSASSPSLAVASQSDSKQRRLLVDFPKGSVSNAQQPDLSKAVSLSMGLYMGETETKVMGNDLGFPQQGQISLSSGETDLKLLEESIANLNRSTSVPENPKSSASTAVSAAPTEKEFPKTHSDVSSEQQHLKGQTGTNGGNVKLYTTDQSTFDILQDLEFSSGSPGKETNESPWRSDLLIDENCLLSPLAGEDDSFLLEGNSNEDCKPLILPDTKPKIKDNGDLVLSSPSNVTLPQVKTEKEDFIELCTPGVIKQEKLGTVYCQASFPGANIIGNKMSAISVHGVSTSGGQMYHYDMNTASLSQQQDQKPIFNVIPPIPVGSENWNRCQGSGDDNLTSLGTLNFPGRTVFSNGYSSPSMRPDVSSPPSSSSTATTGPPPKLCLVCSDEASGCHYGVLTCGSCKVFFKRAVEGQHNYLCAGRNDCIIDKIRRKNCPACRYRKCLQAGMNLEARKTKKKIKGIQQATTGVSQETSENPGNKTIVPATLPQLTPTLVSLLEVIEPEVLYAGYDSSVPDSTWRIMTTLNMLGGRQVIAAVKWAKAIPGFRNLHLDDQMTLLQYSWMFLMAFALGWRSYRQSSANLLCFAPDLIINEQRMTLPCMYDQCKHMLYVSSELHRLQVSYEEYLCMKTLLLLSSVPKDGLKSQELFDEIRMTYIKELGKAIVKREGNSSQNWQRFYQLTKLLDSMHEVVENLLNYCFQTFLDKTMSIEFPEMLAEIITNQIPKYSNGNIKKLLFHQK
Method: Glucocorticoid Receptor Binding Assay (II)
In order to measure the binding of compounds on the glucocorticoid receptor a commercially available kit was used (Glucocorticoid receptor competitor assay kit, PanVera Co., Madison, Wis., P2816). Briefly, a cell lysate containing recombinantly expressed human full-length glucocorticoid receptor was mixed with a fluorescently labeled glucocorticoid (1 nM Fluormone GS1) in the presence or absence of test compound. After one hour at room temperature, the fluorescence polarization (FP) of the samples were measured.

AP-1 = experiment: Cellular transrepressional assay (AP-1 luciferase reporter in A549 cells, PMA-activated); type: cell-based; conditions: for EC50: read-out: AP-1 (EC50, nM) (measured in cellular transrepression assay); for Emax: read-out: AP-1 Max % inhibition (measured in cellular transrepression assay)
Method: Cellular Transrepressional Assay
To measure the ability of test molecules to inhibit AP-1 induced transcriptional activity we utilized an A549 cell which was stably transfected with a plasmid containing 7×AP-1 DNA binding sites (pAP-1-Luc plasmid, Stratagene Co. La Jolla, Calif.) followed by the gene for luciferase. Cells were activated with 10 ng/ml of phorbol myristic acid (PMA) plus or minus test molecules for 7 hours. After 7 hours a luciferase reagent was added to measure luciferase enzymatic activity in the cell. After a 10 minute incubation of luciferase reagent with cells, luminescence was measured in a TOPCOUNT® luminescence counter. Repression of AP-1 activity was calculated as the percentage decrease in the signal induced by PMA alone. Test molecules were analyzed in the concentration range from 0.1 nM to 40 μM. EC50s were determined by using standard curve fitting methods such as Excel fit (Microsoft Co.). An EC50 is the test molecule concentration at which there is a 50% repression of the maximal inhibition of transcription, i.e., a 50% reduction of AP-1 activity.

[2] = A549 cells, 7xAP-1 luciferase, PMA 10 ng/ml, 7 hours

| Structure (SMILES) | Ki [1] [nM] | EC50 (AP-1; [2]) [nM] | Emax (AP-1; [2]) [%] | EC50 (AP-1; 7 h) [nM] | Emax (AP-1; 7 h) [%] |
| --- | --- | --- | --- | --- | --- |
| CN(C)C(=O)c1ccc(-c2ccc3c(n2)Oc2c(F)cccc2[C@@H]3C(C)(C)c2nc3nccnc3[nH]2)cc1 [Example 4, (S)-4-(5-(2-(1H-Imidazo[4,5-b]pyrazin-2-yl)propan-2-yl)-9-fluoro-5H-chromeno[2,3-b]pyridin-2-yl)-N,N-dimethylbenzamide] | 2.63 | 4.94 | 73.1 |  |  |
| CC(C)(c1nc2nccnc2[nH]1)[C@@H]1c2ccc(-c3ccc(C(=O)N4CCOCC4)cc3)nc2Oc2c(F)cccc21 [Example 1, (S)-(4-(5-(2-(1H-Imidazo[4,5-b]pyrazin-2-yl)propan-2-yl)-9-fluoro-5H-chromeno[2,3-b]pyridin-2-yl)phenyl)(morpholino)methanone] | 57 | 8.33 | 65.2 |  |  |
| CC(C)Oc1ccc(-c2ccc3c(n2)Oc2c(F)cccc2[C@@H]3C(C)(C)c2nc3nccnc3[nH]2)cc1Cl [Example 9, (S)-5-(2-(1H-Imidazo[4,5-b]pyrazin-2-yl)propan-2-yl)-2-(3-chloro-4-isopropoxyphenyl)-9-fluoro-5H-chromeno[2,3-b]pyridine] | 2.1 | 291 | 43.7 |  |  |
| CCOc1ccc(-c2ccc3c(n2)Oc2c(F)cccc2[C@@H]3C(C)(C)c2nc3nccnc3[nH]2)cc1 [Example 12, (S)-5-(2-(1H-Imidazo[4,5-b]pyrazin-2-yl)propan-2-yl)-2-(4-ethoxyphenyl)-9-fluoro-5H-chromeno[2,3-b]pyridine] | 0.66 | 14.4 | 62.6 |  |  |
| CC(C)Oc1ccc(-c2ccc3c(n2)Oc2c(F)cccc2[C@@H]3C(C)(C)c2nc3nccnc3[nH]2)cc1 [Example 8, (S)-5-(2-(1H-Imidazo[4,5-b]pyrazin-2-yl)propan-2-yl)-9-fluoro-2-(4-isopropoxyphenyl)-5H-chromeno[2,3-b]pyridine] | 0.76 | 9.82 | 69.8 |  |  |
| CC(C)Oc1ccc(-c2ccc3c(n2)Oc2c(F)cccc2[C@@H]3C(C)(C)c2nc3nccnc3[nH]2)cc1F [Example 10, (S)-5-(2-(1H-Imidazo[4,5-b]pyrazin-2-yl)propan-2-yl)-9-fluoro-2-(3-fluoro-4-isopropoxyphenyl)-5H-chromeno[2,3-b]pyridine] | 0.67 | 20.1 | 70.2 |  |  |
| CC(C)(c1nc2nccnc2[nH]1)[C@@H]1c2ccc(-c3ccc(NS(C)(=O)=O)cc3)nc2Oc2c(F)cccc21 [Example 23, (S)-N-(4-(5-(2-(1H-Imidazo[4,5-b]pyrazin-2-yl)propan-2-yl)-9-fluoro-5H-chromeno[2,3-b]pyridin-2-yl)phenyl)methanesulfonamide] | 1.76 |  |  | 22.8 | 58.2 |

Second part, led by results:

| Ki [1] [nM] | EC50 (AP-1; [2]) [nM] | Structure (SMILES) | Emax (AP-1; [2]) [%] | EC50 (AP-1; 7 h) [nM] | Emax (AP-1; 7 h) [%] |
| --- | --- | --- | --- | --- | --- |
| 144 | 5000 | COC(=O)c1ccc(-c2ccc3c(n2)Oc2c(F)cccc2[C@@H]3C(C)(C)c2nc3nccnc3[nH]2)cn1 [Example 26, (S)-Methyl 5-(5-(2-(1H-imidazo[4,5-b]pyrazin-2-yl)propan-2-yl)-9-fluoro-5H-chromeno[2,3-b]pyridin-2-yl)picolinate] | 14.3 |  |  |
| 65.8 | 2500 | CC(C)(c1nc2cncnc2[nH]1)[C@@H]1c2ccc(-c3ccc(S(C)(=O)=O)cc3)nc2Oc2c(F)cccc21 [Example 17, (S)-5-(2-(9H-Purin-8-yl)propan-2-yl)-9-fluoro-2-(4-(methylsulfonyl)phenyl)-5H-chromeno[2,3-b]pyridine] | 27.3 |  |  |
| 5.43 | 129 | CN(C)c1ccc(-c2ccc3c(n2)Oc2c(F)cccc2[C@@H]3C(C)(C)c2nc3nccnc3[nH]2)cn1 [Example 29, (S)-5-(5-(2-(1H-Imidazo[4,5-b]pyrazin-2-yl)propan-2-yl)-9-fluoro-5H-chromeno[2,3-b]pyridin-2-yl)-N,N-dimethylpyridin-2-amine] | 44.9 |  |  |
| 1.9 | 37.3 | CC(C)(c1nc2nccnc2[nH]1)[C@@H]1c2ccc(-c3ccc(N4CCCC4=O)cc3)nc2Oc2c(F)cccc21 [Example 24, (S)-1-(4-(5-(2-(1H-Imidazo[4,5-b]pyrazin-2-yl)propan-2-yl)-9-fluoro-5H-chromeno[2,3-b]pyridin-2-yl)phenyl)pyrrolidin-2-one] | 69.4 |  |  |
| 2.91 | 19.9 | CC(C)(c1nc2nccnc2[nH]1)[C@@H]1c2ccc(-c3ccc(N)cc3)nc2Oc2c(F)cccc21 [Example 22, (S)-4-(5-(2-(1H-Imidazo[4,5-b]pyrazin-2-yl)propan-2-yl)-9-fluoro-5H-chromeno[2,3-b]pyridin-2-yl)aniline] | 51 |  |  |
